The values that follow come from patent publication US20240206516A1, “SYSTEMS AND METHODS FOR SUGAR-REDUCTION AND/OR FIBER PRODUCTION FOR FOOD AND OTHER APPLICATIONS” (President and Fellowa of Harvard College, priority 2021, published 2024).

Molecules are shown by their SMILES.

The target in experiment [1] is glucose oxidase (Aspergillus niger, UniProt P13006). Kind of experiment: Enzymatic activity of glucose oxidase in the presence of polyphenol and metal ions at different pH. The experiment is classed as biochemical. As for the experimental part:
Enzymatic activity of glucose oxidase was tested in the presence of polyphenol and metal ions from minerals at different pH. Polyphenol is known to be able to bind to enzymes and also form metal coordination with the metal ions.
The enzyme (e.g, glucose oxidase) was combined with different polyphenols (e.g., tannic acid, EGCG) and metal ions from different minerals (e.g., CaCl2, FeCl3, MgCl2, ZnCl2) in buffer solutions having two pH conditions. A buffer having a first pH condition of 3.5 was used to simulate juice buffer. A buffer having a second pH condition of 7 was used to simulate intestinal buffer. The effect of bile salt (an intrinsic compound found in the intestine) on enzymatic activity of glucose oxidase was also tested by incorporating it into the simulated pH 7 intestinal buffer. It should be noted that the enzyme in FIG. 4 is not limited to glucose oxidase, as described in this example. Any appropriate enzymes described elsewherein herein (e.g., inulosucrase, etc.) may be employed using the experimental design in FIG. 4 for sugar reduction.
The enzyme activity of glucose oxidase was measured by measuring the capability of glucose oxidase to convert glucose in different experimental conditions. […] It was hypothesized that at a pH of 7, polyphenol formed metal coordination complexes with metal ions and thus dissociated from the glucose oxidase.
A similar trend in […] was observed when a different polyphenol, EGCE, was used instead of tannic acid.

For experiment [2], the target named is T1, inulosucrase (Lactobacillus gasseri, UniProt D3WYV9).
T1 sequence (D3WYV9 37-761): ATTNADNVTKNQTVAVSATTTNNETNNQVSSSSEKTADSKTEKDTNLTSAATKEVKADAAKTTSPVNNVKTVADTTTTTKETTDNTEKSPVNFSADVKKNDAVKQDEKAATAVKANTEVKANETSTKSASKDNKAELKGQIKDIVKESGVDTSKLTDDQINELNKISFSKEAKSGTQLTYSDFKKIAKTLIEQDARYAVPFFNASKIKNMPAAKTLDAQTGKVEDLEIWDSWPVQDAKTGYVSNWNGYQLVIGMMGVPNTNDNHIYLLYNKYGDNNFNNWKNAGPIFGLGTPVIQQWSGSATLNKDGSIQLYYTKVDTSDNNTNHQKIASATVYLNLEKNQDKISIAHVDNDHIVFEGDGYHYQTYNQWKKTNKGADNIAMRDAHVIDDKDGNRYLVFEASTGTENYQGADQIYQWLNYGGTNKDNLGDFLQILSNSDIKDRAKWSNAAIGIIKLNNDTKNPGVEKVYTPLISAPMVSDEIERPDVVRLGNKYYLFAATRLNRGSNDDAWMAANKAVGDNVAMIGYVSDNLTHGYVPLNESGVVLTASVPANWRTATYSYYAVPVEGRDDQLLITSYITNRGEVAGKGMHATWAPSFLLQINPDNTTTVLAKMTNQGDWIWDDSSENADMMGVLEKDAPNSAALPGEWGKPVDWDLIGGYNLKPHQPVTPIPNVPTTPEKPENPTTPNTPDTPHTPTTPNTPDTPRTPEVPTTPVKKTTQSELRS
Briefly: Inhibition of inulosucrase enzymatic activity by tannic acid. The format is biochemical. As for the experimental part: In addition to encapsulating the inulosucrase-nanocellulose complex, an inhibitor (e.g., tannic acid) could also be encapsulated together with the complex. The amount of tannic acid necessary to inhibit enzymatic activity of inulosucrase (while attached to nanocellulose) is shown in FIG. 19. […] The effect of inulosucrase in various food products were studied. Free inulosucrase (not attached to any substrate) was added to a beverage (e.g., Capri San®) and the concentration of various saccharides was measured after 10 minutes at room temperature and 37° C. (FIG. 20A). […] Additional data for other food products (e.g., chocolates) are illustrated in FIGS. 20B-20C.
The effect of tannic acid on enzymatic activity in various food products at different pH conditions was studied. Tannic acid was combined with an enzyme (e.g., inulosucrase) at 1:1 molar ratio to form tannic acid-enzyme (TA-Enz) complex. The TA-Enz complex was prepared at various pH levels (e.g., 3.5, 5.5) and tannic acid concentrations (e.g., 10 mM, 30 mM, 50 mM). The effect of TA-Enz complex in sucrose solution and apple juice was compared to that of free enzyme (enzyme not complexed with tannic acid). Residual sucrose of sucrose solution and apple juice was first monitored in the presence of TA-Enz complexes after an incubation time of 15 minutes.
Residual sucrose of sucrose solution and apple juice was also monitored in the presence of TA-Enz complexes after an incubation time of 24 hours (FIGS. 23A-23B).

[3] abbreviates: pH 3.5 (simulated juice buffer), polyphenol with Mg^+2 (from MgCl2).
Setting [4] is: pH 7 (simulated intestinal buffer), polyphenol with Mg^+2.
The mark [5] stands for this setting: pH 7 with bile salt (0.2 wt %), polyphenol with Mg^+2.

Sequence of glucose oxidase (P13006 17-605, species assumed): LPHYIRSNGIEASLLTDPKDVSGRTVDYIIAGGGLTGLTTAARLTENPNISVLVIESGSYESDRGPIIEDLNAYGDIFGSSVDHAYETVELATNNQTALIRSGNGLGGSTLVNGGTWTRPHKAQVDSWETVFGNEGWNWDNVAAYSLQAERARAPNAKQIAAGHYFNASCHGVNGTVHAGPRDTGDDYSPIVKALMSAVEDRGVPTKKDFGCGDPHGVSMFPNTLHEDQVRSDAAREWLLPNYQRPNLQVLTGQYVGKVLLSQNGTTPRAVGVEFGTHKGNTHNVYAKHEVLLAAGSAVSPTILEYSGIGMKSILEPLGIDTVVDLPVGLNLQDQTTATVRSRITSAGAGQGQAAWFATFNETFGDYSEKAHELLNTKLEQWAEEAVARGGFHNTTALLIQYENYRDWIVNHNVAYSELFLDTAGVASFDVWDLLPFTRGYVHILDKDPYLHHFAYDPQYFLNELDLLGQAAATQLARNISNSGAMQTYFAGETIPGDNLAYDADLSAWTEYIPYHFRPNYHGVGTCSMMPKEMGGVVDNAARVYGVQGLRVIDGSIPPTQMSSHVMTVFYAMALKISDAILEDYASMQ

On to `O=C(O[C@@H]1Cc2c(O)cc(O)cc2O[C@@H]1c1cc(O)c(O)c(O)c1)c1cc(O)c(O)c(O)c1` [EGCE, Epigallocatechin gallate], for which the “enzymatic activity of glucose oxidase” value in experiment [1] (setting [3]) is “prohibited its enzymatic activity”; in experiment [1] (setting [4]), “partially recovered”; in experiment [1] (setting [5]) it was “further enzymatic activity was recovered”.
With `O=C(OC[C@H]1O[C@@H](OC(=O)c2cc(O)c(O)c(OC(=O)c3cc(O)c(O)c(O)c3)c2)[C@H](OC(=O)c2cc(O)c(O)c(OC(=O)c3cc(O)c(O)c(O)c3)c2)[C@@H](OC(=O)c2cc(O)c(O)c(OC(=O)c3cc(O)c(O)c(O)c3)c2)[C@@H]1OC(=O)c1cc(O)c(O)c(OC(=O)c2cc(O)c(O)c(O)c2)c1)c1cc(O)c(O)c(OC(=O)c2cc(O)c(O)c(O)c2)c1` [tannic acid], the “inulosucrase activity after polyphenol inhibition” value in experiment [2] (in the presence of bile salts) is given as “reactivated in the presence of bile salts”. In addition, the “pH-dependent inhibition and reactivation of enzymatic activity” value in experiment [2] (low pH ˜3.5 vs higher pH ˜6.8) was “repeated inhibition of enzymatic activity at low pH (e.g., pH˜3.5) and reactivation of enzymatic activity at higher pH (e.g., pH˜6.8)”. Besides, the “enzymatic activity of inulosucrase (attached to nanocellulose)” value in experiment [2] (with increase in tannic acid concentration) is “reduction in enzymatic activity”. Also, in experiment [1], the “concentration at which glucose oxidase activity was significantly inhibited” value stood at 1 µM. Further, the entries for the “enzymatic activity of glucose oxidase” value in experiment [1] (setting [3]), in experiment [1] (setting [4]) and in experiment [1] (setting [5]) were “further inhibited”, “partially recovered” and “furthered recovered”, respectively.
